Laboratory results as given in patent publication US20250090480A1, “UNIQUE ANALOGS OF NATURAL LIGNANS USEFUL FOR TREATING TRIPLE NEGATIVE BREAST CANCER” (University of Kentucky Research Foundation, priority 2023, published 2025).

Tests used:
[1] = test system: TNBC cell lines MDA-MB-231, MDA-MB-468, SUM159; test: MTT cell viability assay, 24 h exposure, three TNBC cell lines; assay type: cell-based
Procedure: Cell Viability Assay for Compounds 1-8: The cytotoxicity for compounds 1-8 was assessed in three Triple Negative Breast Cancer cell lines: MDA-MB-231, MDA-MB-468, an SUM159. Cells were grown to 80% confluency in T75 flasks. Media was discarded and trypsin added for 5 minutes to detach cells. Media was added to neutralize the trypsin and mixture was transferred to centrifuge tube. After centrifugation at 2000 RPM for 5 minutes, the pellet was washed with PBS and resuspended in 2 mL appropriate media. Cell density was assessed via hemocytometer and solution diluted to 40,000 cells/mL. A 96-well clear bottom plate was prepared by adding media to rows 1 and 8 and columns 1, 2, 11, and 12 to prevent evaporation from impacting sample wells. Cells were plated in the inner wells with 100 μL per well (4,000 cells/well). Plates were placed in the incubator at 37° C. and 5-10% CO2 overnight to allow cells to acclimate and adhere.
Compounds 1-8 were prepared as 80 mM stock solutions in DMSO. The stock was diluted 20 μL to 4 mL with the appropriate media to yield a new stock concentration of 400 μM and DMSO concentration of 0.5% v/v. This stock was used for six serial dilutions (1/2×) to obtain a range of concentrations from 6.25 to 400 μM. […]
Plates were removed from the incubator and treatment solutions removed. […] Plates were then read on a Biotek Synergy H1 Plate Reader at 570 nm (peak absorbance). […]

SUM159 = test: Colony formation assay in SUM159; assay type: cell-based; conditions: SUM159, half and full IC50 concentrations, 6 days
Procedure: The ability of compounds 1, 7A, and 7B to prevent colony formation was assessed in SUM159, a Triple Negative Breast Cancer cell line. Cells were grown to 80% confluency in T75 flasks in DMEM supplemented with 10% FBS, 1% amphotericin, 1% penicillin/streptomycin, and 5 μg/mL insulin. Media was discarded and trypsin added for 5 minutes to detach cells. Media was added to neutralize the trypsin and mixture was transferred to centrifuge tube. After centrifugation at 2000 RPM for 5 minutes, the pellet was washed with PBS and resuspended in 2 mL of above media. Cell density was assessed via hemocytometer and solution diluted to 2,000 cells/mL. Cells were plated in 6-well clear bottom plates at 2,000 cells/well. Treatment conditions included control (0.5% DMSO), and compounds 1, 7A, and 7B at both half and full IC5. concentrations, All treatments were plated in triplicate for a total of 21 wells used. Plates were placed in the incubator at 37° C. and 5-10% CO2 for six days. […]
(§1) To further characterize the improved bioactivity of compounds 7A and 7B to compound 1, colonogenic and mammmosphere formation assays were performed in TNBC cell line SUM159 at full and half IC50 values (FIG. 7A-7B). […] Using colony formation assay, we evaluated the antiproliferative effects of 7A in SUM159 cells. […]

SUM159 mammosphere = test: Mammosphere formation assay in SUM159; assay type: cell-based; conditions: SUM159, half or full IC50 concentration, 6 days
Procedure: The ability of Compounds 1, 7A, and 7B to prevent mammosphere formation was assessed in SUM159, a Triple Negative Breast Cancer cell line. Cells were grown to 80% confluency in T75 flasks in DMEM supplemented with 10% FBS, 1% amphotericin, 1% penicillin/streptomycin, and 5 μg/mL insulin, Media was discarded and trypsin added for 5 minutes to detach cells. Media was added to neutralize the trypsin and mixture was transferred to centrifuge tube. After centrifugation at 2000 RPM for 5 minutes, the pellet was washed with PBS and resuspended in 2 mL mammosphere media. Mammosphere media consists of MammoCult Human Medium (StemCell Technologies) supplemented with Heparin ([…], StermCellTechnologies) and Hydrocortisone (0.48 μg/ml, StemCell Technologies). Cell density was assessed via hemocytometer and solution diluted to 8,000 cells/mL in mammosphere media. A 24-well ultra-low-attachment clear bottom plate was prepared. Cells were plated in all wells with 500 μL per well (4,000 cells/well). […]
as §1

[2] = test system: TNBC cells, including MDA-MB-231 and MDA-MB-468 cells; conditions: 24 h; read-out: activity of machilin D (comparison value); cited from earlier work

| IC50 ([1]; 24 h exposure, range across MDA-MB-468, MDA-MB-231, SUM159, diastereomeric mixture) [µM] | Compound | cytotoxicity (IC50) comparison of diastereomers ([1]; MTT, all three TNBC cell lines) | colony formation (SUM159) | mammosphere growth (SUM159 mammosphere) | IC50 [2] [µM] |
| --- | --- | --- | --- | --- | --- |
| – | C/C=C/c1ccc(O[C@@H](C)[C@@H](OCC(C)C)c2ccc(O)c(OC)c2)c(OC)c1 (racemic) [Compound 7A] | significantly improved cytotoxicity values over 7B | colony formation was inhibited | effective inhibition | – |
| – | C/C=C/c1ccc(O[C@@H](C)[C@@H](O)c2ccc(O)c(OC)c2)c(OC)c1 [machilin D] | – | – | – | ~100 |
| 167 to 180 | machilin C/D [Compound 1] | – | slow colony formation | slow colony formation and mammosphere growth | – |
